Test results: ChEMBL document CHEMBL1147294, “Plant antimutagenic agents, 5. Isolation and structure of two new isoflavones, fremontin and fremontone from Psorothamnus fremontii” (J Nat Prod, 1989)

Key:
Salmonella typhimurium [1] = test: Antimutagenic activity in Salmonella Typhimurium T-98 assessed as inhibition of 2-aminoanthracene-induced mutation at 300 ug/plate; assay type: functional, Salmonella enterica subsp. enterica serovar Typhimurium
Salmonella typhimurium [2] = test: Antimutagenic activity in Salmonella Typhimurium T-98 assessed as inhibition of 2-aminoanthracene-induced mutation at 150 ug/plate; assay type: functional, Salmonella enterica subsp. enterica serovar Typhimurium
Salmonella typhimurium [3] = test: Antimutagenic activity in Salmonella Typhimurium T-98 assessed as inhibition of 2-aminoanthracene-induced mutation at 75 ug/plate; assay type: functional, Salmonella enterica subsp. enterica serovar Typhimurium
Salmonella typhimurium [4] = test: Antimutagenic activity in Salmonella Typhimurium T-98 assessed as inhibition of 2-aminoanthracene-induced mutation at 37.5 ug/plate; assay type: functional, Salmonella enterica subsp. enterica serovar Typhimurium
Salmonella typhimurium [5] = test: Antimutagenic activity in Salmonella Typhimurium assessed as inhibition of 2-aminoanthracene-induced mutation at 0.6 mg/plate; assay type: functional, Salmonella enterica subsp. enterica serovar Typhimurium
Salmonella typhimurium [6] = test: Antimutagenic activity in Salmonella Typhimurium assessed as inhibition of 2-aminoanthracene-induced mutation at 0.3 mg/plate; assay type: functional, Salmonella enterica subsp. enterica serovar Typhimurium
Salmonella typhimurium [7] = test: Antimutagenic activity in Salmonella Typhimurium T-98 assessed as inhibition of acetylaminofluorene-induced mutation at 300 ug/plate; assay type: functional, Salmonella enterica subsp. enterica serovar Typhimurium
Salmonella typhimurium [8] = test: Antimutagenic activity in Salmonella Typhimurium T-98 assessed as inhibition of acetylaminofluorene-induced mutation at 150 ug/plate; assay type: functional, Salmonella enterica subsp. enterica serovar Typhimurium
Salmonella typhimurium [9] = test: Antimutagenic activity in Salmonella Typhimurium T-98 assessed as inhibition of acetylaminofluorene-induced mutation at 75 ug/plate; assay type: functional, Salmonella enterica subsp. enterica serovar Typhimurium
Salmonella typhimurium [10] = test: Antimutagenic activity in Salmonella Typhimurium T-98 assessed as inhibition of acetylaminofluorene-induced mutation at 37.5 ug/plate; assay type: functional, Salmonella enterica subsp. enterica serovar Typhimurium
Salmonella typhimurium [11] = test: Antimutagenic activity in Salmonella Typhimurium T-100 assessed as inhibition of ethyl methanesulfonate-induced mutation at 300 ug/plate; assay type: functional, Salmonella enterica subsp. enterica serovar Typhimurium
Salmonella typhimurium [12] = test: Antimutagenic activity in Salmonella Typhimurium T-100 assessed as inhibition of ethyl methanesulfonate-induced mutation at 150 ug/plate; assay type: functional, Salmonella enterica subsp. enterica serovar Typhimurium
Salmonella typhimurium [13] = test: Antimutagenic activity in Salmonella Typhimurium T-100 assessed as inhibition of ethyl methanesulfonate-induced mutation at 75 ug/plate; assay type: functional, Salmonella enterica subsp. enterica serovar Typhimurium
Salmonella typhimurium [14] = test: Antimutagenic activity in Salmonella Typhimurium T-100 assessed as inhibition of ethyl methanesulfonate-induced mutation at 37.5 ug/plate; assay type: functional, Salmonella enterica subsp. enterica serovar Typhimurium
Salmonella typhimurium [15] = test: Toxicity to Salmonella Typhimurium at 0.3 to 0.075 mg/plate; assay type: organism-based, Salmonella enterica subsp. enterica serovar Typhimurium; settings: in vivo
Salmonella typhimurium [16] = test: Toxicity to Salmonella Typhimurium at 0.6 mg/plate; assay type: organism-based, Salmonella enterica subsp. enterica serovar Typhimurium; settings: in vivo

Structure (SMILES)	inhibition (INH) (Salmonella typhimurium [1]) [%]	inhibition (INH) (Salmonella typhimurium [2]) [%]	inhibition (INH) (Salmonella typhimurium [3]) [%]	inhibition (INH) (Salmonella typhimurium [4]) [%]	inhibition (INH) (Salmonella typhimurium [5]) [%]	inhibition (INH) (Salmonella typhimurium [6]) [%]	inhibition (INH) (Salmonella typhimurium [7]) [%]	inhibition (INH) (Salmonella typhimurium [8]) [%]	inhibition (INH) (Salmonella typhimurium [9]) [%]	inhibition (INH) (Salmonella typhimurium [10]) [%]	inhibition (INH) (Salmonella typhimurium [11]) [%]	inhibition (INH) (Salmonella typhimurium [12]) [%]	inhibition (INH) (Salmonella typhimurium [13]) [%]	inhibition (INH) (Salmonella typhimurium [14]) [%]	Activity (Salmonella typhimurium [15])	Activity (Salmonella typhimurium [16])
C=CC(C)(C)c1cc(-c2coc3cc(O)cc(O)c3c2=O)c(O)cc1O [FREMONTIN]	93	24	0	65	92	92	0	0	0	0	87	81	90	58	Non-toxic	
C=CC(C)(C)c1cc(-c2coc3cc(O)cc(O)c3c2=O)c(O)c(CC=C(C)C)c1O [FREMONTONE]	93	17	78	89			70	27	3	0	94	86	81	63	Non-toxic	Non-toxic
